Literature values in patent US20080108586A1, “COMBINATION THERAPY FOR HUMAN IMMUNODEFICIENCY VIRUS INFECTION” (Incyte Corporation, priority 2006, published 2008).

How the values were obtained:
[1] = biological target: rhesus macaque CCR5 (Macaca mulatta, UniProt P61813)
[2] = biological target: human CCR5 (Homo sapiens, UniProt P51681)
Sequence of human CCR5 (P51681 whole entry): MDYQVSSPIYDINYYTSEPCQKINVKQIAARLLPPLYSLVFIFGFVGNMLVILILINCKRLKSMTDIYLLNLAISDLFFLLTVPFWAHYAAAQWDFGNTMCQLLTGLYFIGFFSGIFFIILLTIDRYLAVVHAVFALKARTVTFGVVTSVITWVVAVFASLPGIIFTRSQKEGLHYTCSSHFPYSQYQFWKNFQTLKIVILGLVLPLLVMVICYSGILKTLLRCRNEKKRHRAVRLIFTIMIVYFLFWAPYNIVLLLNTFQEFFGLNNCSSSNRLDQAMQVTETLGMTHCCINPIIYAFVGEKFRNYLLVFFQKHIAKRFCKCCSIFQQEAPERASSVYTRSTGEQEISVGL

inhibition of HIV-1 entry via rhesus macaque CCR5 [1]: inhibits
inhibition of HIV-1 entry via human CCR5 [2]: inhibits
Structure (SMILES): Cc1ncnc(C)c1C(=O)N1CCC(C)(N2CCN([C@@H](C)c3ccc(C(F)(F)F)cc3)[C@@H](C)C2)CC1 [AD101, (4,6-dimethylpyrimidin-5-yl)(4-methyl-4-((S)-3-methyl-4-((S)-1-(4-(trifluoromethyl)-phenyl)ethyl)piperazin-1-yl)piperidin-1-yl)methanone]
